Data as given in patent publication US10175256B2, “Compositions and methods utilizing lysophosphatidylcholine scaffolds” (National University Of Singapore, priority 2013, dated 2019).
Several values for one entry are separate records, joined by “and”; a condition that tells them apart may be missing. Equal entries are not always repeated.

Test system: mouse Mfsd2a
Experiment: Cell-based free fatty acid transport/uptake in Mfsd2a expressing HEK293 cells (mass spectrometry, TLC; Table 1)
Conditions: mock HEK293 cells, 100 uM fatty acid/BSA overnight
Summary of the method: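 HEK293 cells expressing mouse Mfsd2a, or mock controls, were incubated overnight with 100 μM BSA-complexed fatty acids. Lipids were extracted in hexane:isopropanol (3:2) and phospholipid species quantified by HPLC-MS/MS against spiked internal standards. For TLC, cells received 100 μM [^14C]-oleate overnight, and phospholipids and neutral lipids were resolved.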

CCCCCCCCCCCCCCCC(=O)O [Palmitic acid]
% DHA in PC + lysoPC: 0.04025% and 0.03837% and 0.03939%
% DHA in PE + lysoPE: 10.87% and 12.13% and 11.44%
% DHA in PI and lysoPI: 0.01445% and 0.01615% and 0.01441%
% DHA in PS: 0.1091% and 0.1184% and 0.1391%
LPI16:0 in total phospholipid: 0.004053 mol percent and 0.002611 mol percent and 0.002621 mol percent
LPI18:0 in total phospholipid: 0.0326 mol percent and 0.02611 mol percent and 0.03227 mol percent
LPI20:4 in total phospholipid: 0.002114 mol percent and 0.002121 mol percent and 0.002948 mol percent
LPI22:6 in total phospholipid: 0.009339 mol percent and 0.008648 mol percent and 0.007698 mol percent
Lyso PE16:0p in total phospholipid: 2.649 mol percent and 2.594 mol percent and 2.175 mol percent
Lyso PE18:0p in total phospholipid: 0.4161 mol percent and 0.4127 mol percent and 0.4189 mol percent
Lyso PE18:1p in total phospholipid: 0.2081 mol percent and 0.1327 mol percent and 0.1216 mol percent
Lyso PE20:0p in total phospholipid: 0.1803 mol percent and 0.2801 mol percent and 0.1892 mol percent
LysoPC16:0e in total phospholipid: 0.003391 mol percent and 0.004221 mol percent and 0.003565 mol percent
LysoPC16:0 in total phospholipid: 0.02383 mol percent and 0.02127 mol percent and 0.02008 mol percent
LysoPC16:1 in total phospholipid: 0.006406 mol percent and 0.00591 mol percent and 0.006781 mol percent
LysoPC18:0e in total phospholipid: 0.002449 mol percent and 0.002111 mol percent and 0.001826 mol percent
LysoPC18:0 in total phospholipid: 0.0065 mol percent and 0.007261 mol percent and 0.008694 mol percent
LysoPC18:1 in total phospholipid: 0.01564 mol percent and 0.01503 mol percent and 0.01617 mol percent
LysoPC18:2 in total phospholipid: 0.00179 mol percent and 0.001266 mol percent and 0.001826 mol percent
LysoPC20:4 in total phospholipid: 0.000565 mol percent and 0.000507 mol percent and 0.000435 mol percent
LysoPC22:5 in total phospholipid: 0.000565 mol percent and 0.000507 mol percent and 0.000609 mol percent
LysoPE16:1 in total phospholipid: 0.1387 mol percent and 0.1179 mol percent and 0.1351 mol percent
LysoPE18:0 in total phospholipid: 0.1248 mol percent and 0.1327 mol percent and 0.06756 mol percent
LysoPE18:1 in total phospholipid: 0.06936 mol percent and 0.1032 mol percent and 0.1081 mol percent
PC32:0e in total phospholipid: 1.801 mol percent and 1.766 mol percent and 1.854 mol percent
PC32:0 in total phospholipid: 2.545 mol percent and 2.525 mol percent and 2.567 mol percent
PC32:1e in total phospholipid: 2.44 mol percent and 2.388 mol percent and 2.446 mol percent
PC32:1 in total phospholipid: 9.659 mol percent and 9.461 mol percent and 9.558 mol percent
PC32:2 in total phospholipid: 1.526 mol percent and 1.443 mol percent and 1.528 mol percent
PC34:1e in total phospholipid: 4.963 mol percent and 4.847 mol percent and 4.905 mol percent
PC34:1 in total phospholipid: 19.9344 mol percent and 19.96 mol percent and 20.13 mol percent
PC34:2e in total phospholipid: 1.578 mol percent and 1.538 mol percent and 1.559 mol percent
PC34:2 in total phospholipid: 6.328 mol percent and 6.182 mol percent and 6.318 mol percent
PC34:3e in total phospholipid: 0.2382 mol percent and 0.2269 mol percent and 0.2367 mol percent
PC34:3 in total phospholipid: 0.6391 mol percent and 0.6013 mol percent and 0.6247 mol percent
PC36:1e in total phospholipid: 1.472 mol percent and 1.429 mol percent and 1.48 mol percent
PC36:1 in total phospholipid: 2.714 mol percent and 2.676 mol percent and 2.731 mol percent
PC36:2e in total phospholipid: 1.667 mol percent and 1.629 mol percent and 1.643 mol percent
PC36:2 in total phospholipid: 5.976 mol percent and 5.824 mol percent and 5.922 mol percent
PC36:3e in total phospholipid: 0.8048 mol percent and 0.7841 mol percent and 0.7962 mol percent
PC36:3 in total phospholipid: 1.196 mol percent and 1.137 mol percent and 1.173 mol percent
PC36:4e in total phospholipid: 0.4288 mol percent and 0.4113 mol percent and 0.4345 mol percent
PC36:4 in total phospholipid: 0.338 mol percent and 0.3342 mol percent and 0.3346 mol percent
PC36:5e in total phospholipid: 0.345 mol percent and 0.3295 mol percent and 0.3467 mol percent
PC36:5 in total phospholipid: 0.06048 mol percent and 0.05513 mol percent and 0.06303 mol percent
PC36:6 in total phospholipid: 0.04691 mol percent and 0.05294 mol percent and 0.05486 mol percent
PC38:1e in total phospholipid: 0.3684 mol percent and 0.3499 mol percent and 0.3643 mol percent
PC38:3e in total phospholipid: 0.4177 mol percent and 0.3847 mol percent and 0.3977 mol percent
PC38:3 in total phospholipid: 0.5512 mol percent and 0.5341 mol percent and 0.5477 mol percent
PC38:4e in total phospholipid: 0.4224 mol percent and 0.3985 mol percent and 0.4045 mol percent
PC38:4 in total phospholipid: 0.4716 mol percent and 0.4393 mol percent and 0.4567 mol percent
PC38:5e in total phospholipid: 0.3578 mol percent and 0.3449 mol percent and 0.3552 mol percent
PC38:5 in total phospholipid: 0.2477 mol percent and 0.2424 mol percent and 0.2561 mol percent
PC38:6 in total phospholipid: 0.174 mol percent and 0.1785 mol percent and 0.1847 mol percent
PC38:7 in total phospholipid: 0.1181 mol percent and 0.1149 mol percent and 0.1218 mol percent
PC40:1e in total phospholipid: 0.1903 mol percent and 0.1874 mol percent and 0.1969 mol percent
PC40:2e in total phospholipid: 0.2001 mol percent and 0.2004 mol percent and 0.2061 mol percent
PC40:3e in total phospholipid: 0.1401 mol percent and 0.1387 mol percent and 0.1449 mol percent
PC40:4e in total phospholipid: 0.1234 mol percent and 0.1193 mol percent and 0.1297 mol percent
PC40:5e in total phospholipid: 0.1139 mol percent and 0.1153 mol percent and 0.1197 mol percent
PC40:5 in total phospholipid: 0.09044 mol percent and 0.0835 mol percent and 0.08903 mol percent
PC40:6 in total phospholipid: 0.1315 mol percent and 0.1248 mol percent and 0.1282 mol percent
PC40:7 in total phospholipid: 0.1778 mol percent and 0.1711 mol percent and 0.1768 mol percent
PE32:1 in total phospholipid: 0.3976 mol percent and 0.2948 mol percent and 0.3603 mol percent
PE32:2 in total phospholipid: 0.111 mol percent and 0.1474 mol percent and 0.08107 mol percent
PE34:0 in total phospholipid: 0.1665 mol percent and 0.1867 mol percent and 0.1531 mol percent
PE34:1 in total phospholipid: 1.137 mol percent and 1.327 mol percent and 1.144 mol percent
PE34:2 in total phospholipid: 0.7398 mol percent and 0.9433 mol percent and 0.7927 mol percent
PE34p:1 in total phospholipid: 0.971 mol percent and 1.042 mol percent and 0.8107 mol percent
PE34p:2 in total phospholipid: 0.2589 mol percent and 0.2653 mol percent and 0.2702 mol percent
PE36:1 in total phospholipid: 1.322 mol percent and 1.425 mol percent and 1.18 mol percent
PE36:2 in total phospholipid: 1.822 mol percent and 1.936 mol percent and 1.702 mol percent
PE36:3 in total phospholipid: 0.4809 mol percent and 0.3636 mol percent and 0.4143 mol percent
PE36:4 in total phospholipid: 0.2219 mol percent and 0.2555 mol percent and 0.1711 mol percent
PE36p:1 in total phospholipid: 0.4994 mol percent and 0.3931 mol percent and 0.3603 mol percent
PE36p:2 in total phospholipid: 0.4531 mol percent and 0.5896 mol percent and 0.6485 mol percent
PE36p:3 in total phospholipid: 0.7305 mol percent and 0.7272 mol percent and 0.9548 mol percent
PE36p:4 in total phospholipid: 0.9617 mol percent and 0.9433 mol percent and 0.9458 mol percent
PE38:1 in total phospholipid: 0.3791 mol percent and 0.3046 mol percent and 0.3063 mol percent
PE38:2 in total phospholipid: 0.2589 mol percent and 0.2555 mol percent and 0.3423 mol percent
PE38:3 in total phospholipid: 0.6381 mol percent and 0.7959 mol percent and 0.5495 mol percent
PE38:4 in total phospholipid: 0.8693 mol percent and 0.9237 mol percent and 0.8647 mol percent
PE38:5 in total phospholipid: 0.3791 mol percent and 0.5405 mol percent and 0.4684 mol percent
PE38:6 in total phospholipid: 0.1665 mol percent and 0.1376 mol percent and 0.1531 mol percent
PE38p:0 in total phospholipid: 0.05548 mol percent and 0.08844 mol percent and 0.09008 mol percent
PE38p:1 in total phospholipid: 0.2034 mol percent and 0.226 mol percent and 0.2432 mol percent
PE38p:2 in total phospholipid: 0.2312 mol percent and 0.2948 mol percent and 0.3423 mol percent
PE38p:3 in total phospholipid: 0.7768 mol percent and 0.8352 mol percent and 0.7656 mol percent
PE38p:4 in total phospholipid: 1.036 mol percent and 0.8549 mol percent and 0.9998 mol percent
PE38p:5 in total phospholipid: 0.6381 mol percent and 0.7272 mol percent and 0.7026 mol percent
PE38p:6 in total phospholipid: 0.971 mol percent and 1.238 mol percent and 1.108 mol percent
PE40:3 in total phospholipid: 0.1202 mol percent and 0.1179 mol percent and 0.1621 mol percent
PE40:5 in total phospholipid: 0.1572 mol percent and 0.1376 mol percent and 0.2432 mol percent
PE40:6 in total phospholipid: 0.3052 mol percent and 0.3832 mol percent and 0.2702 mol percent
PE40p:4 in total phospholipid: 0.2959 mol percent and 0.2162 mol percent and 0.2973 mol percent
PE40p:5 in total phospholipid: 0.2312 mol percent and 0.285 mol percent and 0.3153 mol percent
PE40p:6 in total phospholipid: 0.5271 mol percent and 0.7272 mol percent and 0.6485 mol percent
PE42p:4 in total phospholipid: 0.07398 mol percent and 0.05896 mol percent and 0.08107 mol percent
PE42p:6 in total phospholipid: 0.1572 mol percent and 0.167 mol percent and 0.1441 mol percent
PE42p:7 in total phospholipid: 0.1942 mol percent and 0.1277 mol percent and 0.1621 mol percent
PI 32:1 in total phospholipid: 0.01674 mol percent and 0.0186 mol percent and 0.01785 mol percent
PI 32:2 in total phospholipid: 0.001586 mol percent and 0.001469 mol percent and 0.001965 mol percent
PI 34:1 in total phospholipid: 0.1071 mol percent and 0.1227 mol percent and 0.1299 mol percent
PI 34:2 in total phospholipid: 0.06502 mol percent and 0.06038 mol percent and 0.07305 mol percent
PI 36:1 in total phospholipid: 0.1544 mol percent and 0.1643 mol percent and 0.1769 mol percent
PI 36:2 in total phospholipid: 0.3593 mol percent and 0.3719 mol percent and 0.3898 mol percent
PI 36:3 in total phospholipid: 0.1695 mol percent and 0.1663 mol percent and 0.1785 mol percent
PI 36:4 in total phospholipid: 0.04176 mol percent and 0.03965 mol percent and 0.0416 mol percent
PI 38:2 in total phospholipid: 0.3441 mol percent and 0.3474 mol percent and 0.3631 mol percent
PI 38:3 in total phospholipid: 0.9296 mol percent and 0.9911 mol percent and 1.026 mol percent
PI 38:4 in total phospholipid: 0.3635 mol percent and 0.3967 mol percent and 0.3998 mol percent
PI 38:5 in total phospholipid: 0.05392 mol percent and 0.0483 mol percent and 0.04815 mol percent
PI 38:6 in total phospholipid: 0.0074 mol percent and 0.009628 mol percent and 0.007698 mol percent
PI 40:3 in total phospholipid: 0.02555 mol percent and 0.02627 mol percent and 0.02801 mol percent
PI 40:4 in total phospholipid: 0.01515 mol percent and 0.01599 mol percent and 0.01196 mol percent
PI 40:5 in total phospholipid: 0.004934 mol percent and 0.004895 mol percent and 0.009172 mol percent
PI 40:6 in total phospholipid: 0.007048 mol percent and 0.006527 mol percent and 0.006715 mol percent
PS(sum) in total phospholipid: 3.034 mol percent and 2.842 mol percent and 3.239 mol percent
PS:34:1 in total phospholipid: 0.4968 mol percent and 0.4486 mol percent and 0.5434 mol percent
PS:34:2 in total phospholipid: 0.04738 mol percent and 0.04492 mol percent and 0.04867 mol percent
PS:36:1 in total phospholipid: 1.269 mol percent and 1.209 mol percent and 1.375 mol percent
PS:36:2 in total phospholipid: 0.4595 mol percent and 0.4148 mol percent and 0.4611 mol percent
PS:36:3 in total phospholipid: 0.02585 mol percent and 0.02217 mol percent and 0.0262 mol percent
PS:36:4 in total phospholipid: 0.00359 mol percent and 0.006418 mol percent and 0.006239 mol percent
PS:38:2 in total phospholipid: 0.2312 mol percent and 0.2147 mol percent and 0.2602 mol percent
PS:38:3 in total phospholipid: 0.1522 mol percent and 0.1447 mol percent and 0.1566 mol percent
PS:38:4 in total phospholipid: 0.07467 mol percent and 0.08168 mol percent and 0.07674 mol percent
PS:40:4 in total phospholipid: 0.08328 mol percent and 0.06359 mol percent and 0.073 mol percent
PS:40:5 in total phospholipid: 0.06605 mol percent and 0.06534 mol percent and 0.05865 mol percent
PS:40:6 in total phospholipid: 0.09836 mol percent and 0.1038 mol percent and 0.1248 mol percent
PS:40:7 in total phospholipid: 0.01077 mol percent and 0.01459 mol percent and 0.01435 mol percent
Total PC + lysoPC in total phospholipid: 71.06 mol percent and 69.79 mol percent and 71.05 mol percent
Total PE + lysoPE in total phospholipid: 23.19 mol percent and 24.54 mol percent and 22.75 mol percent
Total PI + lysoPI in total phospholipid: 2.715 mol percent and 2.832 mol percent and 2.956 mol percent
